Reference: patent publication US10160986B2, “Chemoenzymatic synthesis of heparin and heparan sulfate analogs” (The Regents of the University of California, priority 2011, dated 2018)
Like-named read-outs stand apart in the source and are kept apart here.

Columns and labels:
PmHS2 [1] = experiment: Donor substrate specificity of PmHS2 by HPLC (Example 1); type: biochemical, Pasteurella multocida; conditions: acceptor GlcAα2AA 1 mM, UDP-sugar 1 mM, MnCl2 10 mM, pH 6.5, 37° C.
Protocol: pH profile by HPLC. Typical enzymatic assays were performed in a 10 μl reaction mixture containing a buffer (100 mM) with a pH in the range of 4.0-10.0, UDP-GlcNAc (1 mM), GlcAβ2AA (1 mM), MnCl2 (10 mM) and KfiA (9.0 μg) or PmHS2 (0.25 μg). Buffers used were: Na2HPO4/citric acid, pH 4.0; MES, pH 5.0-6.5; TrisHCl, pH 7.0-9.0; and CAPS, pH 10.0. Reactions were allowed to proceed for 30 min at 37° C. and were quenched by adding ice-cold 10% (v/v) acetonitrile to make 100-fold dilutions. The samples were then kept on ice until an aliquot of 8 μl was injected and analyzed by a Shimadzu LC-2010A system equipped with a membrane on-line degasser, a temperature control unit and a fluorescence detector. A reverse phase Premier C18 column (250 9 4.6 mm I.D., 5 μm particle size, Shimadzu) protected with a C18 guard column cartridge was used. The mobile phase was 25% (v/v) acetonitrile. The fluorescent compounds GlcAβ2AA and GlcNAcα1-4GlcAβ2AA were detected by excitation at 315 nm and emission at 400 nm.
Substrate specificity of KfiA and PmHS2. All reactions were carried out in duplicate at 37° C. in MES (100 mM, pH 6.5) containing an UDP-GlcNAc or its derivatives (1 mM), […] (1 mM), MnCl2 (10 mM) and KfiA ([…] PmHS2 (2.5×10^−2 μg μl^−1). At 30 min, 4 h or 16 h, aliquots of reaction mixture were withdrawn and were quenched by adding ice-cold 10% (v/v) acetonitrile to make 100-fold dilutions. The assays were analyzed by HPLC.

PmHS2 [2] = experiment: Small-scale PmHS2 donor substrate test by TLC; type: biochemical, Pasteurella multocida; conditions: GlcAβ2AAMe 10 mM, donor 15 mM, MgCl2 10 mM, PmHS2 0.5 mg/mL, pH 7.5, 37° C., 12 hr
Protocol: Prior to applying the one-pot three-enzyme system shown in FIG. 16 to the preparative-scale synthesis of the disaccharides, UDP-GlcNAc and derivatives F17-1-F17-12 were tested as donor substrates for PmHS2 in small-scale reaction containing Tris-HCl buffer (100 mM, pH 7.5), GlcAβ2AAMe (10 mM), UDP-GlcNAc or a derivative (15 mM), MgCl2 (10 mM), and PmHS2 (0.5 mg/mL). The reactions were carried out at 37° C. for 12 hr and analyzed by thin layer chromatography (TLC).

[3] = system: T1, MBP-KfiA-His6 (Escherichia coli); experiment: GlcNAcT donor substrate specificity of MBP-KfiA-His6 (Example 12); type: biochemical, E. coli; conditions: acceptor GlcAβ2AA 1 mM, UDP-sugar 1 mM, MnCl2 10 mM, KfiA 2.8 μg μl^−1, 24 h, 37° C.
T1 construct: made in house; host or cells: E. coli BL21(DE3) co-expressing chaperone plasmid pGro7
Protocol: (§1) PmHS2, KfiA, and related fusion proteins were expressed, purified, and characterized as described in Example 1. Reactions with UDP-sugars were carried out in duplicate at 37° C. in MES (100 mM, pH 6.5) containing UDP-GlcNAc or one of its derivatives (1 mM), GlcAβ2AA (1 mM), MnCl2 (10 mM) and KfiA (2.8 μg μl^−1) or PmHS2 (1.1 μg μl^−1) for 24 h. The reaction mixtures were stopped by adding ice-cold 10% (v/v) acetonitrile to make 100-fold dilutions and the mixtures were analyzed by HPLC as described for the pH profile.
(§2) Substrate specificity of the GlcNAcT activities of MBP-KfiA-his6 and his6-PmHS2. […] The reactions were easily analyzed by high performance liquid chromatography (HPLC) equipped with a fluorescence detector using an excitation wavelength of 315 nm and an emission wavelength of 400 nm to determine the ratio of the fluorescent disaccharide product formed and the fluorescent GlcAβ2AA acceptor.

His6-PmHS2 = experiment: GlcNAcT donor substrate specificity of His6-PmHS2 (Example 12); type: biochemical, Pasteurella multocida; conditions: acceptor GlcAβ2AA 1 mM, UDP-sugar 1 mM, MnCl2 10 mM, PmHS2 1.1 μg μl^−1, 24 h, 37° C.
Protocol: as §1, §2

NahK_ATCC15697 = NahK_ATCC15697 (Bifidobacterium longum, UniProt B7GN78); experiment: Substrate specificity CE assay, NahK_ATCC15697; type: biochemical, Bifidobacterium infantis; conditions: substrate 1 mM
Protocol: (§3) Substrates specificity assays. GlcNAc, GalNAc, and their derivatives (1 mM) were used as substrates in the presence of ATP (1 mM) and MgCl2 (5 mM) in a Tris-HCl buffer (pH 8.0, 200 mM) to analyze the substrate specificity of NahKs. Two concentrations (0.75 μM or 15 μM) of each NahK were used and the reactions were allowed to proceed for 10 min (for 0.75 μM NahK) or 30 min (for 15 μM NahK) at 37° C. […] All other conditions were the same as for GlcNAc, GalNAc, and their derivatives.
(§4) Capillary electrophoresis (CE) assays. Based on the detection of ADP and ATP in the reaction mixture by a UV detector, a capillary electrophoresis-based method was developed to directly measure the formation of ADP and N-acetylhexosamine-1-phosphate from ATP and N-acetylhexosamine for characterizing the activities of NahKs.

SpGalK = target: T2, SpGalK (Streptococcus pneumoniae serotype 4, UniProt Q97NZ6); experiment: Kinase reaction monitored by CE (ATP to ADP), SpGalK; type: biochemical, Streptococcus pneumoniae TIGR4; conditions: monosaccharide 15 mM, ATP 18 mM, 37° C.
T2 construct: made in house
Protocol: (§5) Capillary electrophoresis (CE) and thin-layer chromatograph (TLC) assays for kinase reactions. […] These conditions were similar to those used for preparative-scale synthesis. After 1 hr, 4 hr, and 24 hr, an aliquot of 8 μL was withdrawn from each reaction mixture, boiled in a water bath for 5 min and stored at −20° C. until being analyzed by capillary electrophoresis (CE) and TLC. For TLC analysis, 0.5 μL of each sample was directly spotted on TLC plates, developed using suitable developing solvents, and stained with anisaldehyde sugar stain. For CE analysis, 1.5 μL of each sample was diluted into 30 μL and subjected to CE analysis as described above for pH profile studies.

NahK_ATCC55813 = NahK_ATCC55813 (Bifidobacterium longum subsp. longum, UniProt E8MF12, D7V/R348H); type: biochemical; set-up: made in house; host or cells: E. coli BL21(DE3); conditions: substrate 1 mM
Protocol: as §3, §4

EcGalK = target: T3, EcGalK (Escherichia coli, UniProt P0A6T3); experiment: Kinase reaction monitored by CE (ATP to ADP), EcGalK; type: biochemical; conditions: monosaccharide 15 mM, ATP 18 mM, 37° C.
T3 construct: made in house
Protocol: as §5

AtGlcAK = target: T4, AtGlcAK (Arabidopsis thaliana, UniProt Q93ZC9, I297M); experiment: AtGlcAK substrate specificity CE assay; type: biochemical; conditions: High enzyme Conc. (2.1 μg in 20 μL, 60 min, 37° C.)
T4 construct: made in house; host or cells: E. coli BL21 (DE3)
Protocol: Substrate specificity assays. […] The reactions were quenched and assayed with the same method as those for pH profile. All reactions were performed in duplicates.

[4] = system: CC(=O)N[C@H]1C(O)O[C@H](CO)[C@@H](O)[C@@H]1O; experiment: purified protein, by the assay type; conditions: other: substrates ATP and GlcNAc, one varied, other fixed at 1 mM, 37° C., 10 min, pH 7.5
Protocol: (§6) Kinetics by CE assays. Reactions were carried out in duplicate at 37° C. for 10 min in a total volume of 20 μL in Tris-HCl buffer (200 mM, pH 7.5) containing MgCl2 (1 mM), ATP, GlcNAc or GalNAc, and NahK (0.25 μM when GlcNAc and ATP were used as substrates, 0.5 μM when GalNAc and ATP were used as substrates). Apparent kinetic parameters were obtained by varying the ATP concentration from 0.1-5.0 mM (0.1 mM, 0.2 mM, 0.4 mM, 1 mM, 2 mM, and 5 mM) at a fixed concentration of GlcNAc or GalNAc (1 mM), or varying the concentration of GlcNAc or GalNAc (0.1 mM, 0.2 mM, 0.4 mM, 1 mM, 2 mM, and 5 mM) at a fixed concentration of ATP (1 mM) and fitting the data to the Michaelis-Menten equation using Grafit 5.0.

[5] = system: CC(=O)N[C@H]1C(O)O[C@H](CO)[C@H](O)[C@@H]1O; experiment: purified protein, by the assay type; conditions: other: substrates ATP and GalNAc, one varied, other fixed at 1 mM, 37° C., 10 min, pH 7.5
Protocol: as §6

[6] = system: Nc1ncnc2c1ncn2[C@@H]1O[C@H](COP(=O)(O)OP(=O)(O)OP(=O)(O)O)[C@@H](O)[C@H]1O; experiment: purified protein, by the assay type; conditions: one varied, other fixed at 1 mM, 37° C., 10 min, pH 7.5
Protocol: as §6

[7] = 0.75 μM enzyme, 10 min at 37° C., ATP 1 mM
[8] = 15 μM enzyme, 30 min at 37° C., ATP 1 mM (Table 2)
[9] = other: substrates ATP and GalNAc
[10] = other: substrates ATP and GlcNAc

## CC(=O)N[C@H]1[C@@H](OP(=O)(O)OP(=O)(O)OC[C@H]2O[C@@H](n3ccc(=O)[nH]c3=O)[C@H](O)[C@@H]2O)O[C@H](CN=[N+]=[N-])[C@@H](O)[C@@H]1O [Compound F17-8, Uridine 5′-diphospho-2-acetamido-6-azido-2,6-dideoxy-α-D-glucopyranoside]
PmHS2 [1]
  donor substrate for PmHS2: is a substrate for PmHS2
PmHS2 [2]
  donor substrate for PmHS2: tolerable donor substrates
[3]
  donor substrate for MBP-KfiA-His6: can be used by MBP-KfiA-His6
His6-PmHS2
  donor substrate for the α1-4GlcNAcT activity of His6-PmHS2: suitable donor substrates for His6-PmHS2

## [N-]=[N+]=NC1C(O)OC(CO)[C@H](O)C1O (stereo partly shown) [GalN3]
NahK_ATCC15697; [7]
  Percentage Conversion: 0%
NahK_ATCC15697; [8]
  Percentage Conversion: 7.6 ± 0.1%
SpGalK; 1 hr
  ATP Conversion: 45.7%
SpGalK; 4 hr
  ATP Conversion: 79.0%
SpGalK; 24 hr
  ATP Conversion: 81.2%
NahK_ATCC55813; [7]
  Percentage Conversion: 0%
NahK_ATCC55813; [8]
  Percentage Conversion: 4.3 ± 0.1%

## CC(=O)NC1C(O)OC(CO)[C@H](O)[C@@H]1O (stereo partly shown) [GalNAc, N-acetylgalactosamine]
NahK_ATCC15697; [7]
  Percentage Conversion: 12.5 ± 0.1%
SpGalK; 1 hr
  ATP Conversion: 11.8%
SpGalK; 4 hr
  ATP Conversion: 24.7%
SpGalK; 24 hr
  ATP Conversion: 69.5%
NahK_ATCC55813; [7]
  Percentage Conversion: 19.9 ± 0.1%

## OCC1OC(O)CC(O)[C@H]1O (stereo partly shown) [T6-2 2-deoxyGal, 2-deoxyGal]
SpGalK; 1 hr
  ATP Conversion: 80.3%
SpGalK; 4 hr
  ATP Conversion: 89.5%
EcGalK; 1 hr
  ATP Conversion: 78.5%
EcGalK; 4 hr
  ATP Conversion: 87.6%

## N[C@H]1C(O)O[C@H](CO)[C@H](O)[C@@H]1O (stereo partly shown) [T6-3 GalNH2, galactosamine]
EcGalK; 1 hr
  ATP Conversion: 90.2%

## O=C[C@H](O)[C@@H](O)[C@H](O)CO [Xyl, xylose]
AtGlcAK
  Percentage conversion of ATP: <5%

## NahK_ATCC15697 (Bifidobacterium longum subsp. infantis ATCC 15697 = JCM 1222 = DSM 20088)
[4]
  Km: 60 ± 10 µM
  kcat: 0.95 ± 0.01 s⁻¹
  kcat/Km: 15800 M⁻¹ s⁻¹
[5]
  Km: 90 ± 50 µM
  kcat: 0.46 ± 0.07 s⁻¹
  kcat/Km: 5100 M⁻¹ s⁻¹
[6]; [9]
  Km: 80 ± 30 µM
  kcat: 0.38 ± 0.02 s⁻¹
  kcat/Km: 4800 M⁻¹ s⁻¹
[6]; [10]
  Km: 100 ± 30 µM
  kcat: 1.1 ± 0.1 s⁻¹
  kcat/Km: 11000 M⁻¹ s⁻¹

## NahK_ATCC55813 (Bifidobacterium longum subsp. longum JCM 1217; D7V/R348H)
[4]
  Km: 60 ± 10 µM
  kcat: 1.1 ± 0.1 s⁻¹
  kcat/Km: 18300 M⁻¹ s⁻¹
[5]
  Km: 80 ± 30 µM
  kcat: 0.57 ± 0.04 s⁻¹
  kcat/Km: 7100 M⁻¹ s⁻¹
